# How the values were obtained:
# Lymphocytes = test: Lymphocyte counts after FTY720 treatment; type: in vivo, mice
# Description: (§1) Drug treatments and leukocyte/lymphocyte counts: Four-week old FVB or C3H mice were obtained from Charles River Laboratories (Wilmington, Mass.). Animals were maintained in a pathogen-free facility in microisolator cages. Mice were anaesthetized with isoflurane inhalation, and a single dose of FTY720 (at 1 or 3 mg/kg) or GT11 (at 1, 10 or 100 mg/kg) in sterile water was injected intraperitoneally at time zero. Blood counts were determined by Coulter counter (Coulter Instruments, Hialeah, Fla.) and by manual differential counting. Mice were euthanized by CO2 inhalation at various time points post-injection, followed by tissue harvest. All animal studies were performed in accordance with approved CHORI IACUC protocols.
# Inhibition of SPL by FTY720 in vivo—The effect on SPL enzyme activity of FTY720 administration was tested. Four-week old female FVB mice were given 1 mg/kg FTY720 by intraperitoneal injection, and tissue SPL activity in thymus was assessed over time. […] SPL inhibition occurred concomitantly with lymphopenia, and was consistent with the timing of lymphopenia reported previously (Chiba et al., (1998) J Immunol 160, 5037-5044) (Table 1).
# SPL protein expression = SPL protein expression in thymic extracts by immunoblotting; type: in vivo; conditions: mice treated for 24 hours
# Description: (A) SPL gene expression. HEK293 cells were co-transfected with a human SPL luciferase reporter construct and the sea pansy luciferase reporter as a control for transfection efficiency. Twenty-four hours after transfection, cells were treated with 0.3 μM FTY720, 3.0 μM FTY720 or vehicle and incubated for another 24 hours at 37° C. Luciferase activity was then determined as a measure of expression, as described in Experimental Methods. Values shown are luciferase activity normalized to sea pansy luciferase; (B) SPL protein expression. Thymic extracts from control mice (time 0) and mice treated with FTY720 for 24 hours were evaluated for SPL protein expression by immunoblotting. Actin was used as a loading control.
# SPL expression: To evaluate the effect of FTY720 and FTY720-P on SPL gene expression, HEK293 cells were treated for 30 minutes with 3 μM of either drug, followed by transfection with pSPL-BamHI, a human SPL-luciferase reporter construct. After 48 hours, reporter expression was determined by luciferase activity as described (Oskouian et al., (2005) J Biol Chem 280, 18403-18410)). Western blotting of mouse tissue extracts was performed using a 1:2000 dilution of polyclonal sera raised against the murine SPL C-terminal peptide: (NH2)—V-T-Q-G-N-Q-M-N-G-S—P—K—P—R—(COOH). [SEQ ID NO:11] […]
# S1P = S1P measurements in murine tissue after FTY720 treatment; type: in vivo
# Description: as §1
# S1P measurements: S1P was isolated by two-phase lipid extraction, derivatized with OPA and quantitated by HPLC essentially as described (Jiang et al, (2004) Proc Natl Acad Sci USA 101, 17825-17830; Fyrst et al., (2004) J Lipid Res 45, 54-62; Caligan et al., (2000) Anal. Biochem. 281, 36-44). All tissues were weighed prior to snap freezing in liquid nitrogen and were stored at −100° C. until processing. One nanomole of C17-S1P and PSo were added as internal standards before homogenization of tissues. Lipids were extracted with 1 ml mixture of chloroform and methanol (1:2 ratio). Samples were incubated at room temperature with sonication for 3 hours and then dried by speed vac. One ml of 0.1N NaOH in methanol was added for 1 hour at 37° C. to achieve hydrolysis. After addition of 4 ml chloroform and 4 ml 1M KCl, samples were mixed and phases separated by centrifugation. The organic phase was collected and dried for sphingosine determination. The aqueous phase was mixed with 300 μl concentrated HCl and 6 ml chloroform. The phases were separated by centrifugation, and the organic phase was collected and dried for S1P determination. All samples for S1P determination were re-dissolved in methanol. After derivation with OPA, samples were injected onto HPLC for quantification. The mobile phase was methanol:10 mM phosphate buffer (pH 7.2):1M tetrabutylammonium dihydrogen phosphate (TBAP) in water=83:16:1, v/v/v and the flow rate was 1 ml/min.
# FTY720 administration minimally affects tissue SIP levels—SK is known to be responsible for S1P synthesis, whereas SPL and S1P phosphatases are responsible for S1P catabolism. Since FTY720 interacts with both SK and SPL and may potentially influence the efficiency of both S1P synthesis and degradation, the sum effect of FTY270 administration on tissue S1P levels was determined. FTY720 treatment was associated with a slight increase in thymic tissue S1P at 36 hours, followed by a return to baseline levels by 48 hours (Table 2). […] S1P levels increased somewhat more dramatically in splenic tissue after FTY720 treatment (Table 2). […] According to non-limiting theory, simultaneous inhibition of SPL may account for the stability of tissue S1P levels in response to drug treatment.
# [1] = single dose administration; cited from earlier work
compound,measurement,setting,value
CCCCCCCCc1ccc(CCC(N)(CO)CO)cc1 [FTY720],Lymphocytes,Lymphocytes; 24 hours after FTY720,2.2 1000/μL
same,Lymphocytes,Lymphocytes; 48 hours after FTY720,3.2 1000/μL
same,Lymphocytes,Lymphocytes; 72 hours after FTY720,2.0 1000/μL
same,SPL protein expression (immunoblotting),SPL protein expression,not affected
same,S1P (spleen),S1P; 24 hours after FTY720,15121.31 picomoles per gram of wet weight tissue
same,S1P (spleen),S1P; 36 hours after FTY720,18482.30 picomoles per gram of wet weight tissue
same,S1P (spleen),S1P; 48 hours after FTY720,12365.84 picomoles per gram of wet weight tissue
same,Dihydrosphingosine-1-P (DHS1P) tissue levels,S1P; throughout 48 hours of treatment,remained stable
same,S1P (thymus),S1P; 24 hours after FTY720,3000.69 picomoles per gram of wet weight tissue
same,S1P (thymus),S1P; 36 hours after FTY720,3917.48 picomoles per gram of wet weight tissue
same,S1P (thymus),S1P; 48 hours after FTY720,3194.45 picomoles per gram of wet weight tissue
same,elimination half-life,[1],long

# Source: patent publication US8124111B2, “Immunomodulation by altering sphingosine 1-phosphate lyase (SPL) activity” (Children's Hospital & Research Center at Oakland, priority 2005, dated 2012)
